In patent US12662452B2, “Solid state forms of lucerastat and process for preparation thereof” (ASSIA CHEMICAL INDUSTRIES LTD., priority 2019, dated 2026):

How the values were obtained:
[1] = Exposure of the solid form to 20-80% relative humidity for 7 days at room temperature; type: physicochemical; details: exposed to 20-80% RH for 7 days at room temperature
[2] = Long term storage stability at 2-8° C.; type: physicochemical; details: storage at 2-8° C.

| Substance | deliquescence [1] | polymorphic stability [1] | long term stability [2] |
| --- | --- | --- | --- |
| Lucerastat: L-Pyroglutamic acid | does not deliquesce | polymorphically stable | at least 1 year |
| Lucerastat: Salicylic acid [Lucerastat: Salicylic acid Form LC-2] | – | – | at least 1 year |
